The source of these data is the Kinase Knowledgebase extract (Sharma et al. 2016).

The assay concerns the target MAPK14 (human) (UniProt Q16539). Kind of assay: Inhibition of MAPK14 Kinase Activity.

pIC50: −log10 of the molar value. A value given as a limit tells only on which side of the number the result lay.

Chain of MAPK14 (human) (Q16539 whole entry, looked up): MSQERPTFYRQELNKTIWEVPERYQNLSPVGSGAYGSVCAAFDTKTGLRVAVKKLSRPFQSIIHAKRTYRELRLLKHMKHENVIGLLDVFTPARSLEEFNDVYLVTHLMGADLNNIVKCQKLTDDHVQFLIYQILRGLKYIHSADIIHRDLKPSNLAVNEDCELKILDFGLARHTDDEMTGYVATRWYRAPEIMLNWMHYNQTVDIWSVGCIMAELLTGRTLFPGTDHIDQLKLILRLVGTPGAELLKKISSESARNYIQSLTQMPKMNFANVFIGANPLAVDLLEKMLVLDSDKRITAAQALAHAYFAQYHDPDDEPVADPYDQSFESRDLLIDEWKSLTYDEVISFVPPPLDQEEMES

One may read the pIC50 as −log10 of the IC50, conventionally taken in molar units. `Cc1cc(F)ccc1-c1nc(NCCNC(=O)c2ccccc2)nc2c1ccc(=O)n2-c1c(F)cccc1F` had a negative-log IC50 (pIC50) of more than 5.00.

Compound `Cc1cc(F)ccc1-c1nc(NC2CCOCC2)nc2c1ccc(=O)n2-c1c(F)cccc1F` had a negative logarithm of the IC50 (pIC50) of more than 5.00.

`Cc1cc(F)ccc1-c1nc(S(C)(=O)=O)nc2c1ccc(=O)n2-c1c(C)cccc1C` showed a negative logarithm of the IC50 (pIC50) of more than 5.00.

The compound `Cc1cc(F)ccc1-c1nc(N(C)S(C)(=O)=O)nc2c1ccc(=O)n2-c1c(F)cccc1F` showed a negative logarithm of the IC50 (pIC50) of more than 5.00.

The compound `CCC(CC)n1c(=O)ccc2c(-c3ccccc3Cl)nc(NC3CCN(C)CC3)nc21` gave a pIC50 of more than 5.00.

Turning to `Cc1cc(F)ccc1-c1nc(NCCC(=N)NO)nc2c1ccc(=O)n2-c1c(F)cccc1F`, the negative-log IC50 (pIC50) was more than 5.00.

The compound `Cc1cc(F)ccc1-c1nc(NCC(=O)N2CC(O)C2)nc2c1ccc(=O)n2-c1c(F)cccc1F` gave a pIC50 of more than 5.00.

Compound `CSc1nc(-c2ccc(F)cc2C)c2ccc(=O)n(-c3ccccc3F)c2n1` gave a negative logarithm of the IC50 (pIC50) of more than 5.00.

As for `NCCNc1nc(-c2ccccc2Cl)c2ccc(=O)n(-c3ccccc3Cl)c2n1`, the pIC50 was more than 5.00.

In turn, `CCC(=O)NCCNc1nc(-c2ccc(F)cc2C)c2ccc(=O)n(-c3c(F)cccc3F)c2n1` gave a pIC50 of more than 5.00.

`CCC(C)n1c(=O)ccc2c(-c3ccc(F)cc3C)nc(SC)nc21` (configuration not stated): the pIC50 is more than 5.00.

With `Cc1cc(F)ccc1-c1nc(NCC(F)(F)F)nc2c1ccc(=O)n2-c1c(F)cccc1F`, the pIC50 was more than 5.00.

With `Cc1cc(F)ccc1-c1nc(NC2CCOC2)nc2c1ccc(=O)n2-c1c(F)cccc1F` (configuration not stated), the negative-log IC50 (pIC50) is more than 5.00.

In the case of `CCC(CC)n1c(=O)ccc2c(-c3ccccc3Cl)nc(NCCN)nc21`, the pIC50 was more than 5.00.

For the compound `Cc1cc(F)ccc1-c1nc(NC(C)(CO)CO)nc2c1ccc(=O)n2-c1c(F)cccc1F`, the negative logarithm of the IC50 (pIC50) was more than 5.00.

The compound `Cc1cc(F)ccc1-c1nc(N[C@@H](C)CO)nc2c1ccc(=O)n2-c1ccccc1C` had a pIC50 of more than 5.00.

The compound `Cc1cc(F)ccc1-c1nc(N[C@@H](C)CO)nc2c1ccc(=O)n2-c1ccccc1F` had a pIC50 of more than 5.00.

On to `Cc1cc(F)ccc1-c1nc(NCCO)nc2c1ccc(=O)n2-c1ccccc1F`, for which the negative logarithm of the IC50 (pIC50) was more than 5.00.

Consider `Cc1cc(F)ccc1-c1nc(NCc2ncc[nH]2)nc2c1ccc(=O)n2-c1c(F)cccc1F`, for which the pIC50 is more than 5.00.

In turn, `Cc1cc(F)ccc1-c1nc(NC[C@@H](C)O)nc2c1ccc(=O)n2-c1c(F)cccc1F` showed a pIC50 of more than 5.00.

Compound `CSc1nc(-c2ccccc2)c2ccc(=O)n(-c3ccccc3)c2n1` had a pIC50 of more than 5.00.

`CS(=O)(=O)c1nc(-c2ccccc2)c2ccc(=O)n(-c3ccccc3)c2n1` had a pIC50 of more than 5.00.

Take `CCn1c(=O)ccc2c(-c3ccccc3F)nc(SC)nc21`: the pIC50 was more than 5.00.

Turning to `CC(C)n1c(=O)ccc2c(-c3ccccc3F)nc(NC(CO)CO)nc21`, the pIC50 was more than 5.00.

Consider `Cc1cc(F)ccc1-c1nc(NS(C)(=O)=O)nc2c1ccc(=O)n2-c1c(F)cccc1F`, for which the pIC50 is more than 5.00.

As for `CNC(=O)NCCNc1nc(-c2ccc(F)cc2C)c2ccc(=O)n(-c3c(F)cccc3F)c2n1`, the negative logarithm of the IC50 (pIC50) is more than 5.00.

`Cc1cc(F)ccc1-c1nc(NCC(F)(F)F)nc2c1ccc(=O)n2-c1ccccc1C` showed a negative-log IC50 (pIC50) of more than 5.00.

As for `Cc1cc(F)ccc1-c1nc(NC[C@H](C)O)nc2c1ccc(=O)n2-c1ccccc1C`, the pIC50 was more than 5.00.

In turn, `Cc1cc(F)ccc1-c1nc(S(C)(=O)=O)nc2c1ccc(=O)n2-c1ccccc1C` gave a negative logarithm of the IC50 (pIC50) of more than 5.00.

As to `CSc1nc(-c2ccccc2F)c2ccc(=O)n(C(C)C)c2n1`, the pIC50 is more than 5.00.

`Cc1cc(F)ccc1-c1nc(N[C@H]2CCC[C@@H]2O)nc2c1ccc(=O)n2-c1c(F)cccc1F`: the pIC50 is more than 5.00.

`CCNC(=O)CNc1nc(-c2ccc(F)cc2C)c2ccc(=O)n(-c3c(F)cccc3F)c2n1` had a negative-log IC50 (pIC50) of more than 5.00.

Compound `O=c1ccc2c(-c3ccccc3Cl)nc(OCCO)nc2n1-c1ccccc1Cl` showed a negative-log IC50 (pIC50) of more than 5.00.

Regarding `Cc1cc(F)ccc1-c1nc(NCCNC(=O)C(C)(C)C)nc2c1ccc(=O)n2-c1c(F)cccc1F`, the pIC50 was more than 5.00.

Consider `Cc1cc(F)ccc1-c1nc(NCCC#N)nc2c1ccc(=O)n2-c1c(F)cccc1F`, for which the negative logarithm of the IC50 (pIC50) was more than 5.00.

Take `COc1nc(-c2ccccc2F)c2ccc(=O)n(-c3c(F)cccc3F)c2n1`: the pIC50 is more than 5.00.

The compound `Cc1cc(F)ccc1-c1nc(NC[C@H](C)O)nc2c1ccc(=O)n2-c1ccccc1F` gave a pIC50 of more than 5.00.

In the case of `Cc1cc(F)ccc1-c1nc(NC(CO)CO)nc2c1ccc(=O)n2-c1c(F)cccc1F`, the pIC50 is more than 5.00.

For the compound `CCN(CC)CCNc1nc(-c2ccccc2F)c2ccc(=O)n(-c3ccccc3Cl)c2n1`, the negative logarithm of the IC50 (pIC50) was more than 5.00.

Regarding `Cc1cc(F)ccc1-c1nc(NCC(=O)N2CCNC(=O)C2)nc2c1ccc(=O)n2-c1c(F)cccc1F`, the pIC50 is more than 5.00.

`Cc1cc(F)ccc1-c1nc(N[C@@H](C)CO)nc2c1ccc(=O)n2-c1c(F)cccc1F` gave a pIC50 of more than 5.00.

Regarding `CSc1nc(Cl)c(C=O)c(NC2CCCCC2)n1`, the negative-log IC50 (pIC50) was more than 5.00.

Compound `Cc1cc(F)ccc1-c1nc(OCC(CO)CO)nc2c1ccc(=O)n2-c1c(F)cccc1F` had a pIC50 of more than 5.00.

For `Cc1cc(F)ccc1-c1nc(OCCN(C)S(C)(=O)=O)nc2c1ccc(=O)n2-c1c(F)cccc1F`, the pIC50 was more than 5.00.

For the compound `Cc1cc(F)ccc1-c1nc(NCCc2c[nH]cn2)nc2c1ccc(=O)n2-c1c(F)cccc1F`, the pIC50 is more than 5.00.

For the compound `CN(C)CCNc1nc(-c2ccccc2Cl)c2ccc(=O)n(-c3ccccc3Cl)c2n1`, the pIC50 is more than 5.00.

`Cc1cc(F)ccc1-c1nc(OCCN)nc2c1ccc(=O)n2-c1c(F)cccc1F` gave a negative logarithm of the IC50 (pIC50) of more than 5.00.

The compound `CCOc1nc(-c2ccc(F)cc2C)c2ccc(=O)n(-c3c(F)cccc3F)c2n1` gave a pIC50 of more than 5.00.

For `CSc1nc(-c2ccc(F)cc2C)c2ccc(=O)n(-c3ccccc3C)c2n1`, the pIC50 is more than 5.00.

`Cc1cc(F)ccc1-c1nc(N[C@@H]2CCC[C@@H]2C(N)=O)nc2c1ccc(=O)n2-c1c(F)cccc1F`: the negative logarithm of the IC50 (pIC50) is more than 5.00.

The compound `Cc1cc(F)ccc1-c1nc(O)nc2c1ccc(=O)n2-c1ccccc1F` had a negative-log IC50 (pIC50) of more than 5.00.

Regarding `CCNc1nc(-c2ccc(F)cc2C)c2ccc(=O)n(-c3ccccc3F)c2n1`, the pIC50 was more than 5.00.

Take `Cc1cc(F)ccc1-c1nc(N[C@H](C)CO)nc2c1ccc(=O)n2-c1c(F)cccc1F`: the pIC50 was more than 5.00.

In turn, `Cc1cc(F)ccc1-c1nc(NC(CO)CO)nc2c1ccc(=O)n2-c1ccccc1C` showed a negative-log IC50 (pIC50) of more than 5.00.

In turn, `CCC(CC)n1c(=O)ccc2c(-c3ccc(F)cc3C)nc(OC)nc21` had a negative logarithm of the IC50 (pIC50) of more than 5.00.

The compound `Cc1cc(F)ccc1-c1nc(NC2CCCCC2)nc2c1ccc(=O)n2-c1c(F)cccc1F` showed a pIC50 of more than 5.00.

With `O=c1ccc2c(-c3ccccc3Cl)nc(NC(CO)CO)nc2n1-c1ccccc1Cl`, the pIC50 is more than 5.00.

On to `CCCCOc1nc(-c2ccc(F)cc2C)c2ccc(=O)n(-c3c(F)cccc3F)c2n1`, for which the pIC50 was more than 5.00.

Compound `Cc1nnc(CNc2nc(-c3ccc(F)cc3C)c3ccc(=O)n(-c4c(F)cccc4F)c3n2)[nH]1` gave a pIC50 of more than 5.00.

In the case of `Cc1cc(F)ccc1-c1nc(S(C)(=O)=O)nc2c1ccc(=O)n2C1CCCCC1`, the negative-log IC50 (pIC50) was more than 5.00.

Compound `CCNc1nc(-c2ccc(F)cc2C)c2ccc(=O)n(-c3ccccc3C)c2n1` gave a negative-log IC50 (pIC50) of more than 5.00.

In turn, `CCONc1nc(-c2ccc(F)cc2C)c2ccc(=O)n(-c3ccccc3F)c2n1` gave a pIC50 of more than 5.00.

On to `CNc1nc(-c2ccc(F)cc2C)c2ccc(=O)n(-c3c(F)cccc3F)c2n1`, for which the negative logarithm of the IC50 (pIC50) is more than 5.00.

Regarding `Cc1cc(F)ccc1-c1nc(Nc2c[nH]c(=O)[nH]c2=O)nc2c1ccc(=O)n2-c1c(F)cccc1F`, the negative logarithm of the IC50 (pIC50) is more than 5.00.

Compound `O=c1ccc2c(-c3ccccc3F)nc(NC(CO)CO)nc2n1-c1c(F)cccc1F` gave a pIC50 of more than 5.00.

Take `Cc1cc(F)ccc1-c1nc(NC[C@H](O)c2ccccc2)nc2c1ccc(=O)n2-c1c(F)cccc1F`: the pIC50 is more than 5.00.

In turn, `CS(=O)(=O)Nc1nc(-c2ccccc2F)c2ccc(=O)n(-c3c(F)cccc3F)c2n1` showed a pIC50 of more than 5.00.

In turn, `CCC(CC)n1c(=O)ccc2c(-c3ccccc3Cl)nc(NCCN(CC)CC)nc21` had a negative logarithm of the IC50 (pIC50) of more than 5.00.

Compound `CCNC(=O)NCCNc1nc(-c2ccc(F)cc2C)c2ccc(=O)n(-c3c(F)cccc3F)c2n1` gave a negative logarithm of the IC50 (pIC50) of more than 5.00.

`CCC(CC)n1c(=O)ccc2c(-c3ccccc3Cl)nc(NC(CO)CO)nc21` had a pIC50 of more than 5.00.

As for `Cc1cc(F)ccc1-c1nc(NC(CO)CO)nc2c1ccc(=O)n2CC1CC1`, the negative-log IC50 (pIC50) was more than 5.00.

Consider `Cc1cc(F)ccc1-c1nc(NC(CO)(CO)CO)nc2c1ccc(=O)n2-c1c(F)cccc1F`, for which the negative logarithm of the IC50 (pIC50) was more than 5.00.

In turn, `Cc1cc(F)ccc1-c1nc(NC2CCCCC2)nc2c1ccc(=O)n2-c1ccccc1F` had a pIC50 of more than 5.00.

Compound `Cc1cc(F)ccc1-c1nc(O)nc2c1ccc(=O)n2-c1c(F)cccc1F` had a negative-log IC50 (pIC50) of more than 5.00.

Take `CCC(CC)n1c(=O)ccc2c(-c3ccccc3Cl)nc(NCCO)nc21`: the negative-log IC50 (pIC50) was more than 5.00.

`Cc1cc(F)ccc1-c1nc(NCC2CCCO2)nc2c1ccc(=O)n2-c1c(F)cccc1F` (configuration not stated) gave a pIC50 of more than 5.00.

In the case of `CC(CO)(CO)Nc1nc(-c2ccccc2Cl)c2ccc(=O)n(-c3ccccc3Cl)c2n1`, the negative-log IC50 (pIC50) is more than 5.00.

`Cc1cc(F)ccc1-c1nc(NC[C@@H](C)O)nc2c1ccc(=O)n2C1CCCCC1`: the negative-log IC50 (pIC50) is more than 5.00.

Compound `Cc1cc(F)ccc1-c1nc(NCCNC(=O)Nc2cccc(F)c2)nc2c1ccc(=O)n2-c1c(F)cccc1F` gave a pIC50 of more than 5.00.

`CCOC(=O)NCCNc1nc(-c2ccc(F)cc2C)c2ccc(=O)n(-c3c(F)cccc3F)c2n1` showed a pIC50 of more than 5.00.

Turning to `Cc1cc(F)ccc1-c1nc(NC(CO)CO)nc2c1ccc(=O)n2-c1c(C)cccc1C`, the pIC50 was more than 5.00.

Consider `Cc1cc(F)ccc1-c1nc(NC2CCOCC2)nc2c1ccc(=O)n2-c1ccccc1F`, for which the negative logarithm of the IC50 (pIC50) is more than 5.00.

With `Cc1cc(F)ccc1-c1nc(N(C(=O)C2CC2)C(=O)C2CC2)nc2c1ccc(=O)n2-c1c(F)cccc1F`, the pIC50 was more than 5.00.

Compound `CN1CCC(Nc2nc(-c3ccccc3Cl)c3ccc(=O)n(-c4ccccc4Cl)c3n2)CC1` showed a pIC50 of more than 5.00.

In turn, `O=c1ccc2c(-c3ccccc3F)nc(NC(CO)CO)nc2n1-c1ccccc1F` had a pIC50 of more than 5.00.

Take `CC(=O)NCCOc1nc(-c2ccc(F)cc2C)c2ccc(=O)n(-c3c(F)cccc3F)c2n1`: the negative-log IC50 (pIC50) was more than 5.00.

Regarding `CSCCCNc1nc(-c2ccc(F)cc2C)c2ccc(=O)n(-c3c(F)cccc3F)c2n1`, the pIC50 was more than 5.00.
